In patent US9771430B2, “Method of treating a metabolic disorder induced by obesity in a subject in need thereof by administering MK2/3 inhibitors” (THE TRUSTEES OF COLUMBIA UNIVERSITY IN THE CITY OF NEW YORK, priority 2011, dated 2017):

Tests used:
[1] = system: CaMKII; format: cell-based, mouse
Description: (§1) FIG. 1A. CaMKII enzyme activity was assayed in triplicate wells of primary mouse HCs stimulated with 100 nM glucagon (Gluc) or vehicle control (Veh) for the indicated times (*P<0.05 and **P<0.01 vs. Veh; mean±S.E.M.). FIGS. 1B-1J. Extracts of HCs or liver were probed for phospho-CaMKII, total CaMKII, and β-actin by immunoblot assay. FIG. 1B. HCs were incubated with […] glucagon for the indicated times; FIG. 1C. Glucagon was added to HCs that were pre-treated for 1 h with vehicle control (Veh) or 5 μM BAPTA-AM; FIG. 1D. Glucagon was added to HCs that were pre-treated with 0.5 μM xestospongin (XesC) or to HCs from Ip3r1fl/fl mice transduced with adeno-LacZ control or adeno-Cre (bar graph=Ip3r1 mRNA levels); FIG. 1E. Glucagon was added to HCs that were pre-treated for 1 h with vehicle control (Veh) or 10 μM H89. FIG. 1F. […] FIGS. 1G-1J. In vivo experiments. In FIG. 1G, mice were treated for 30 min with 200 μg kg−1 body weight of glucagon i.p., and in FIG. 1H, mice were pre-treated with 10 pmol g−1 xestospongin C or vehicle control i.p. 4 days prior to glucagon treatment. In FIGS. 1I-1J, mice were fed ad libitum or fasted for 12 h, or fasted for 12 h and then re-fed for 4 h.
Total RNA was extracted from hepatocytes using the RNeasy kit (Qiagen). cDNA was synthesized from 2 μg total RNA using oligo (dT) and Superscript II (Invitrogen). Real-time qPCR analysis and western blotting were performed as previously described (Timmins et al., 2009). Nuclear extraction from liver was performed using the Nuclear Extraction Kit from Panomics according to the manufacturer's instructions.
Immunoblot and RT-qPCR assays were performed as previously described (Timmins et al., 2009). Total RNA was extracted from HCs using the RNeasy kit (Qiagen). cDNA was synthesized from 2 μg total RNA using oligo (dT) and Superscript II (Invitrogen). Nuclear extraction from liver was performed using the Nuclear Extraction Kit from Panomics according to the manufacturer's instructions.

[2] = system: CaMKII; assay: Hepatic CaMKII phosphorylation in mice; format: in vivo, mouse
Description: as §1, with “FIGS. 1A-J. Glucagon and fasting activates hepatic CaMKII. FIG. 1A.” for “FIG. 1A.”
FIGS. 28A-G. (Related to FIGS. 1 and 22). FIG. 28A Mice were injected i.p. with the indicated doses of glucagon and sacrificed 15 min later. The livers were probed for phospho- and total CaMKII and β-actin by immunoblot. FIG. 28B Mice (n=5/group) were fed ad libitum or fasted for 12 h and then plasma was assayed for glucagon (*P=0.007; mean±S.E.M.). FIG. 28C Mice were injected i.p. with 10 pmol g^−1 xestospongin C (XesC) or vehicle control each day for 4 days and then fed ad libitum or fasted for 12 h. Liver phospho-CaMKII, total CaMKII, and β-actin levels were assayed by immunoblot. FIG. 28D Immunoblot of CaMKII in HCs transduced with adeno-LacZ vs. CA-CaMKII. FIG. 28E HCs were transduced with adeno-LacZ or KD-CaMKII. Cells were serum-depleted overnight and then assayed for CaMKII activity (*P<0.005; mean±S.E.M.). […]
Camk2g−/− mice were generated as described previously (Backs et al., 2010) and crossed onto the C57BL6/J background. […] Fasting blood glucose was measured in mice that were fasted for 12-14 h, with free access to water, using a glucose meter (One Touch Ultra, Lifescan). […] Blood glucose levels were measured over the following 2 h. […]
Camk2g^−/− mice were generated as described previously (Backs et al., 2010) and crossed onto the C57BL6/J background. ob/ob mice were obtained from Jackson Labs. […] Fasting blood glucose was measured in mice that were fasted for 12-14 h, with free access to water, using a glucose meter (One Touch Ultra, Lifescan). […] Blood glucose levels were measured over the following 2 h. […]

Compound | phospho-CaMKII ([1]; HCs treated with agonist) | hepatic CaMKII phosphorylation ([2]; bolus of i.p. glucagon) | glucagon dose capable of phosphorylating CaMKII in the liver (as low as) ([2]; i.p.) [µg/kg] | glucagon-induced CaMKII phosphorylation ([1]; HCs pre-treated with inhibitor, then glucagon) | glucagon-induced CaMKII phosphorylation in liver ([2]; i.p. xestospongin C 10 pmol g−1 for 4 days, then glucagon) | fasting-induced phosphorylation of CaMKII in liver ([2]; xestospongin C treatment of the mice, 12 h fast)
glucagon: hormone used to stimulate hepatocytes and mice | induced | induced | 1 |  |  | 
C1CCC[C@H]2CCCN3CC[C@@H](CCCCCC[C@@H]4CCCN5CC[C@@H](CC1)O[C@@H]45)O[C@@H]23 [Xestospongin C] |  |  |  | significant decrease | markedly reduced | suppressed
